What all share (format): in vivo
In assay [1] the test system is mice. Briefly: Impulsivity, Elevated Plus Maze. To be noted: age 13 weeks, postnatal CB2 agonist2 5 mg/kg. The method, then: The treatment consisted of a single intravenous administration of the vehicle or the M1 solution Impulsivity was tested 24 hours after treatment.
Impulsivity as measured by the paucity of time spent on the two anxiety-provoking, open arms (as opposed to the two enclosed arms) of an “Elevated Plus Maze” was used as a parameter of negative symptoms of schizophrenia (Josselyn and Vaccarino, 1998). The plus maze was elevated 50 cm above the table top. Behavior of each mouse was recorded for 5 minutes by a video camera and scored using the “EthoVision” software (Noldus), measuring the number of entries as well as the amount of time spent in each arm, open or closed. Reduced time spent in the closed arms indicated reduced anxiety. Increased time spent in the opened arms indicated increased risk behavior (hyperactive and impulsive).
The treatment consisted of a single i.p. administration of the vehicle or the M1 solution. The duration ratio open arm/close arm and the frequency ratio open arm/close arm in the Elevated Plus Maze were evaluated 24 hours after treatment with either vehicle or M1.

Assay [2] has as its system mice. The experiment in a line: Vocal tics, ultrasonic voice recording. The method, then: Mice were recorded at the age of 13 or 23-25 weeks with an ultrasonic voice recorder (Noldus). Mice were recorded at the age of 29 days with an ultrasonic voice recorder (AviSoft). Single mice were recorded in a cage for 10 min (according to sex and type of treatment). The number and duration of events at 20-40 kHz and at 50-70 kHz were analyzed. In some experiments, 24 h following M1 treatment, each mouse was recorded for 10 min before and after stress. Stress was induced by incubation for 10-15 min in a mouse restrainer.

In assay [3] the test system is mice. The method, then:
For the treated mice, one of the two CB2 receptor-selective agonist solutions: either CB2 agonist2 solution or H-308 solution, was administered by intravenous administration to mice pups to induce ADHD-like behavior and/or obsessive-compulsive-like behavior as a murine model for ADHD and OCD. […] In order to test the effect of non-agonist or mixed-type agonist/inverse agonist CB2 receptor ligands on hyperactivity, the effects of M1 were studied.
Open-Field Test (Crossing and Rearing, Defecation, Grooming)
Mice were assessed for hyperactive behavior on postnatal days 16-20, 26-39, at age 13 weeks and at age 23 weeks. Mice were placed in the center of a transparent glass cage 30×40×31 cm divided into squares of 7.5×7.5 cm. The number of squares crossed and the rearing activity were evaluated for 8 min.

The subject of assay [4] is mice. Briefly: Prepulse inhibition (PPI) of the startle reflex. The method, then: Attention Test: Prepulse Inhibition (PPI) of the Startle Reflex
A weak audible stimulus (74-90 dB tone) “prepulse” was used to inhibit the acoustic startle response to a subsequent strong audible stimulus (120 dB tone) “pulse”. Reduced prepulse inhibition of the startle reflex (PPI) was taken as an index of the positive symptoms of deficits in attention.
PPI was assessed similarly to the method described by Varty et al. (2001). Mice were placed in a startle chamber and allowed to acclimatize for 5 minutes A loudspeaker produced startling “pulse” at 120 dB and thereafter 65 dB background white noise or one of […] 20 ms duration “prepulses” at 74, 78, 82, 86, and 90 dB followed after 20 ms by a 40 ms startling “pulse” at 120 dB. The response of each mouse was recorded and stored by a computer. Each test session lasted for 11 minutes and consisted of 5 presentations of each of the prepulse/pulse sound stimuli (total of 30 or 35) presented in random order and separated by 15 second intervals. The magnitude of prepulse inhibition was calculated as percentage PPI=[1-(acoustic startle for prepulse+pulse)/(acoustic startle for pulse alone)]×100.

Assay [5] relates to mice. The experiment in a line: Motor tics in the open field test.

Where two headings read alike, the source gives them in different places.

As to `C=C1CC/C=C(\C)CC[C@@H]2[C@@H]1CC2(C)C` [CB2 agonist2, beta-caryophyllene], the “ratio of duration in the open arm/close arm” value in the assay with mice [1] (females, FIG. 6A) was “increased”; in the assay with mice [1] (males+females, FIG. 6B), “increased”. Moreover, the “number of vocal events” value in the assay on mice [2] (20-40 KHz, day 29, female mice, CB2 agonist2 0.5 mg/kg at the age of 3-15 days, M1 5 mg/kg on day 29, FIG. 14A) is on record as “increased”; in the assay on mice [2] (female mice 23-25 weeks, 20-40 KHz, stress, CB2 agonist2 5 mg/kg postnatal days 5-13, M1 given to model mice, FIG. 7A) it was “increased”; in the assay with mice [2] (female mice 23-25 weeks, 50-70 KHz, stress, CB2 agonist2 5 mg/kg postnatal days 5-13, M1 given to model mice, FIG. 8A) it was “increased”. The duration of vocals result in the assay on mice [2] (20-40 KHz, day 29, female mice, CB2 agonist2 0.5 mg/kg at the age of 3-15 days, M1 5 mg/kg on day 29, FIG. 14B) is on record as “increased”. Besides, the “total duration of vocal events” value is recorded as “increased” in the assay on mice [2] (female mice 23-25 weeks, 20-40 KHz, stress, CB2 agonist2 5 mg/kg postnatal days 5-13, M1 given to model mice, FIG. 7B); “increased” with mice [2] (female mice 23-25 weeks, 50-70 KHz, stress, CB2 agonist2 5 mg/kg postnatal days 5-13, M1 given to model mice, FIG. 8B); “increased” with mice [2] (male mice 23-25 weeks, 20-40 KHz, before stress, CB2 agonist2 5 mg/kg postnatal days 5-13, M1 given to model mice, FIG. 9A); “increased” with mice [2] (male mice 23-25 weeks, 50-70 KHz, before stress, CB2 agonist2 5 mg/kg postnatal days 5-13, M1 given to model mice, FIG. 10A). Also, the “mean duration of vocal events” value with mice [2] (female mice 23-25 weeks, 20-40 KHz, stress, CB2 agonist2 5 mg/kg postnatal days 5-13, M1 given to model mice, FIG. 7C) is listed as “increased”; in the assay on mice [2] (female mice 23-25 weeks, 50-70 KHz, stress, CB2 agonist2 5 mg/kg postnatal days 5-13, M1 given to model mice, FIG. 8C), “increased”; in the assay with mice [2] (male mice 23-25 weeks, 20-40 KHz, before stress, CB2 agonist2 5 mg/kg postnatal days 5-13, M1 given to model mice, FIG. 9B) it was “increased”; with mice [2] (male mice 23-25 weeks, 50-70 KHz, before stress, CB2 agonist2 5 mg/kg postnatal days 5-13, M1 given to model mice, FIG. 10B), “increased”. Also, the grooming entry in the assay on mice [3] (CB2 agonist2 0.5 mg/kg at the age of 3-15 days, M1 5 mg/kg on day 29, measured on day 39, stressed female mice, FIG. 13A) is on record as “increased”. Moreover, the feces secretion result in the assay on mice [3] (CB2 agonist2 0.5 mg/kg at the age of 3-15 days, M1 5 mg/kg on day 29, measured on day 39, stressed female mice, FIG. 13B) is given as “increased”. For the same compound, the rearing result with mice [3] (CB2 agonist2 0.5 mg/kg at the age of 3-15 days, M1 on day 29, measured on day 36, unstressed female mice, FIG. 12A) was “increased”; in the assay with mice [3] (CB2 agonist2 0.5 mg/kg at the age of 3-15 days, measured on day 26, unstressed females, FIG. 11C) it was “increased”; with mice [3] (model mice 5 mg/kg CB2 agonist2 postnatal days 1-5, M1 5 mg/kg single i.p. at 13 weeks, 30 minutes after treatment, FIG. 5B), “increase”; with mice [3] (open field test at postnatal days 16-19, 5 mg/kg CB2 agonist2 at postnatal days 5-13, FIG. 1B) it was “increased”; with mice [3] (open field test at postnatal days 16-19, 10 mg/kg CB2 agonist2 at postnatal days 5-13, FIG. 1D), “increased”. Further, the ambulation entry with mice [3] (CB2 agonist2 0.5 mg/kg at the age of 3-15 days, M1 on day 29, measured on day 39, stressed female mice, FIG. 12B) is reported as “increased”; with mice [3] (CB2 agonist2 0.5 mg/kg at the age of 3-15 days, measured on day 26, unstressed females, FIG. 11A) it was “increased”; in the assay on mice [3] (model mice 5 mg/kg CB2 agonist2 postnatal days 1-5, M1 5 mg/kg single i.p. at 13 weeks, 30 minutes after treatment, FIG. 5A) it was “increase”; in the assay on mice [3] (open field test at postnatal days 16-19, 5 mg/kg CB2 agonist2 at postnatal days 5-13, FIG. 1A), “increased”; with mice [3] (open field test at postnatal days 16-19, 10 mg/kg CB2 agonist2 at postnatal days 5-13, FIG. 1C), “increased”. Also, the secretion of feces result with mice [3] (model mice 5 mg/kg CB2 agonist2 postnatal days 5-13, M1 5 mg/kg single i.p. at 23 weeks, FIG. 4C) is reported as “decreased”. Moreover, the grooming duration entry in the assay with mice [3] (model mice 5 mg/kg CB2 agonist2 postnatal days 5-13, M1 5 mg/kg single i.p. at 23 weeks, tested 48 hours after treatment, FIG. 4A) is reported as “increased”. The grooming frequency entry with mice [3] (model mice 5 mg/kg CB2 agonist2 postnatal days 5-13, M1 5 mg/kg single i.p. at 23 weeks, tested 48 hours after treatment, FIG. 4B) is recorded as “increased”. Besides, the percent pre-pulse inhibition entry in the assay with mice [4] (female mice treated with CB2 agonist2 at postnatal days 5-13, FIG. 3B) is listed as “decreased”. Further, the acoustic startle entry in the assay with mice [4] (model mice vs control mice at the age of 8 weeks, FIG. 3A) is given as “not significantly different”.
Turning to `CCCCCCC(C)(C)c1cc(OC)c([C@@H]2C=C(CO)[C@@H]3C[C@H]2C3(C)C)c(OC)c1` [HU-308, [(1R,2R,5R)-2-[2,6-dimethoxy-4-(2-methyloctan-2-yl)phenyl]-7,7-dimethyl-4-bicyclo[3.1.1]hept-3-enyl]methanol], in the assay on mice [5] (HU-308 5 mg/kg during postnatal days 5-13, age of 12 weeks, open field test), the “abnormal motor tics/head twitches” value is on record as “induced”. Further, in the assay with mice [5] (HU-308 5 mg/kg postnatal days 5-13, age 12 weeks, total over the recording), the “Number of tics, Total” value is listed as 18. Besides, the hyperactivity entry with mice [3] (age of 3 months, 0.1 mg/kg HU-308, M1 5 mg/kg in gavage 30 minutes before the experiment, FIGS. 17A-B) is reported as “induced”. Also, in the assay with mice [3] (open field test at postnatal days 16-19, 5 mg/kg HU-308 at postnatal days 5-13, FIG. 2A), the ambulation result is “increased”. Moreover, the rearing result in the assay on mice [3] (open field test at postnatal days 16-19, 5 mg/kg HU-308 at postnatal days 5-13, FIG. 2B) is “increased”. Further, the percent pre-pulse inhibition result in the assay on mice [4] (female mice injected with HU-308 at postnatal days 5-13, FIG. 3D) is reported as “decreased”; with mice [4] (male mice injected with HU-308 at postnatal days 5-13, FIG. 3C) it was “decreased”.
